Data reported in patent publication US12403184B2, “Compositions and methods for treating neurodegenerative disroders” (priority 2018, dated 2025).
Where no end group is shown, it is not given here.

Key:
HdhQ111 cells = experiment: Mitochondrial morphology (anti-Tom20 staining) in striatal cells; format: cell-based, mouse; settings: 1 μM/day for 4 days, relative to TAT
Procedure: Mouse striatal cell lines HdhQ7 and Q111 cells are immortalized from knock-in mice carrying 7 and 111 CAG repeats, respectively, in the mouse htt gene. HdhQ7 and HdhQ111 purchased from CHDI Foundation were cultured in DMEM supplemented with 10% (v/v) heat-inactivated FBS, 1% (v/v) penicillin/streptomycin, and 400 μg/ml G418 at 33° C. with 5% CO2. Cells within 14 passages were used in all experiments.
Cells grown on coverslips were fixed with 4% paraformaldehyde for 20 mins at r.t., permeabilized with 0.1% Triton X-100 in PBS and blocked with 2% normal goat serum. The cells were then incubated with primary antibody (overnight, at 4° C.) followed by Alexa Fluor 568 or 488 secondary antibody (2 h, r.t.). After staining with Nuclei with Hoechst dye (1:10,000 dilution), the cells were mounted onto slides. The cells were imaged by Fluoview FV1000 microscopy (Olympus).

HD R6/2 mice = experiment: Striatal neuropathology in R6/2 mice (DARPP-32 immunohistochemistry, Golgi-Cox staining, striatum volume); format: in vivo, mouse
Procedure: Mice were deeply anesthetized and transcardially perfused with 4% paraformaldehyde in PBS. Brains were processed for paraffin embedment. Brain sections (10 μm, coronal) were used for immunohistochemical localization of DARPP-32 (1:500, Abcam) or ATAD3A (1:200, Genetex) using the IHC Select HRP/DAB kit (Millipore). Quantitation of DARPP-32 immunostaining was conducted using NIH image J software. The same image exposure times and threshold settings were used for sections from all treatment groups. An experimenter blinded to the experimental groups conducted the quantitation.
Coronal sections (10 μm) spaced 200 μm apart throughout the striatum will be stained with anti-NeuN (Sigma, MAB377, 1:200 dilution) antibody followed by secondary antibodies and detection with diaminobenzidine (DAB, Pierce). The perimeter of the striatum will be traced in each of the serial sections using a ×2 objective. For the volume estimation, consecutive sections (an average of 10-15 sections/animal) will be visualized and the perimeter of the striatum will be outlined. The striatal volume will be estimated by multiplying the sum of all the sectional areas (mm2) by the distance between successive sections (200 μm).
Dendrite morphology of medium spiny neurons in wildtype and HD R6/2 mice was analyzed by Golgi-Cox staining using Novaultra Golgi-Cox Stain Kit (IHCWorld, SKU IW-3023). Briefly, mice were deeply anesthetized and transcardially perfused with 4% paraformaldehyde in PBS. After thoroughly washing with PBS overnight, mouse brains were immersed in the Golgi-Cox solution in dark at room temperature, then replaced with fresh Golgi-Cox Solution after 2 days of immersion and continued the impregnation at room temperature in dark for 14 days following the manufactory instruction. After washing with PBS for 2 days, serial coronal sections of 200 μm thick were cut on Vibratome Series 1000 Sectioning System. […] Total dendritic length per neuron was measured using NIH Image J plug-in simple neurite tracer.

[1] = system: striatum of R6/2 and YAC128 mice; experiment: Western blot of striatal proteins in treated HD mice; format: in vivo, mouse; settings: for TFAM protein level / mtCO2 protein level: striatal mitochondria
Procedure: Cells were washed with cold phosphate-buffered saline (PBS) and incubated on ice in mitochondrial lysis buffer (250 mM sucrose, 20 mM HEPES-NaOH, pH 7.5, 10 mM KCl, 1.5 mM MgCl2, 1 mM EDTA, 1 mM EGTA, protease inhibitor cocktail, and phosphatase inhibitor cocktail) for 30 min. The cells were scraped and then disrupted 15 times by repeated aspiration through a 25-gauge needle. Mouse brains were minced and homogenized in mitochondrial lysis buffer to release mitochondria. The homogenates were spun at 800×g for 10 min at 4° C., and the resulting supernatants were spun at 12,000×g for 20 min at 4° C. The pellets were washed with lysis buffer and spun at 12,000×g again for 20 min at 4° C. The final pellets were suspended in lysis buffer containing 1% Triton X-100 and were mitochondrial-rich lysate fractions. The mitochondrial protein voltage-dependent anion channel (VDAC) was used as a loading control.
Protein concentration was measured by protein assay dye reagents (Bio-rad). The protein was resuspended in Laemmli buffer, loaded on SDS-PAGE, and transferred onto nitrocellulose membranes. Membranes were probed with the indicated antibodies, followed by visualization with ECL. Representative blots have been cropped for presentation.
Systemic peptide treatment in HD mice. All randomization and peptide treatments were prepared by an experimenter not associated with behavioral and neuropathology analysis. Male R6/2 mice (Tg) and their age-matched wild-type littermates (Wt) (6-week-old) were implanted with a 28-day osmotic pump (Alzet, Cupertino CA, Model 2004) containing TAT control peptide or DA1 peptide, which delivered peptides at a rate of 1 mg/kg/day. Male YAC128 mice (Tg) and their age-matched wild-type littermates (WT) were treated with TAT control peptide or DA1 peptide (1 mg/kg/day) by Alzet osmotic pump starting from the age of 3 months. The pump was replaced once every month.

mtDNA = mtDNA content in plasma of YAC128 mice by qPCR; format: in vivo, mouse; settings: YAC128 mice at the age of 6 months
Procedure: For isolation of DNA from mouse plasma, the QIAamp DNA Blood Mini Kit (QIAGEN) was used. Briefly, 100-200 μl mouse plasma was subjected to total DNA extraction. Then the eluted DNA was diluted (1:5) to perform the qPCR experiment.

[2] = YAC128 mice, 12 months old, striatal extracts

Question: “YGRKKRRQRRRGGEDKRKT-NH2 [DA1, YGRKKRRQRRR-GG-EDKRKT-NH2]” was tested. Which “number of cells with fragmented mitochondria” value (HdhQ111 cells) did it give?
Answer: reduced

Question: And the “dendritic morphology of MSN (Golgi-Cox staining)” value (HD R6/2 mice)?
Answer: improved

Question: What about the striatum volume (HD R6/2 mice) of the same substance?
Answer: increased

Question: What about the “area occupied by DARPP-32-immunostained cells in the striatum” value (HD R6/2 mice; 12 weeks old) of the same substance?
Answer: increased

Question: And the TFAM protein level ([1]; R6/2 mice, 12 weeks old)?
Answer: corrected

Question: And the mtCO2 protein level ([1]; R6/2 mice, 12 weeks old)?
Answer: corrected

Question: And the nuclear-encoded mitochondrial proteins ([1]; YAC128 and wildtype mice, 6 months old, striatal mitochondrial lysates)?
Answer: no observable effects

Question: And the TFAM protein level ([1]; YAC128 mice, 6 months old)?
Answer: corrected

Question: And the mtCO2 protein level ([1]; YAC128 mice, 6 months old)?
Answer: corrected

Question: And the DARPP-32 protein level [1, 2]?
Answer: increased

Question: And the PSD95 protein level [1, 2]?
Answer: increased

Question: What about the PGC1α protein levels ([1]; YAC128 mouse striatum, until 12 months of age) of the same substance?
Answer: increased

Question: What about the “increase of plasma mtDNA content” value (mtDNA) of the same substance?
Answer: abolished
